Reference: patent US6743798B1, “Substituted pyrazole derivatives condensed with six-membered heterocyclic rings” (Bayer Aktiengesellschaft, priority 1998, dated 2004)
Where two headings read alike, the source gives them in different places. One block for each compound: values may come before it.

Key:
[1] = system: rabbit aortal rings preconcentrated with phenylephrine; test: Vasorelaxant action in vitro; format: cell-based; settings: Oryctolagus cuniculus, read-out: IC50 [μM] vasorelaxant action
Protocol: (§1) To determine the cardiovascular action, the following investigations were carried out: In in vitro investigations on the isolated and on cells of vascular origin, the effect on guanylate cyclase-dependent cGMP formation was tested with and without NO donor. The anti-aggregatory properties were shown on human platelets stimulated with collagen. The vasorelaxant action was determined in rabbit aortal rings preconcentrated with phenylephrine. The hypotensive action was investigated in anaesthetized and awake rats.
Rabbits are anaesthetized by a blow to the neck and exanguinated. The aorta is removed, freed from adhering tissue, divided into 1.5 mm wide rings and individually transferred under a pretension into 5 ml organ baths containing a warm, carbogen-aerated Krebs-Henseleit solution at 37° C. of the following composition (mM): NaCl: 119; KCl: 4.8; CaCl2×2H2O: 1; MgSO4×7H2O; 1.4; KH2PO4: 1.2; NaHCO3: 25; glucose: 10. The contractility is detected using Statham UC2 cells, amplified and digitalized by means of A/D converters (DAS-1802 HC, Keithley Instruments Munich), and recorded in parallel on linear recorders. To produce a contraction, phenylephrin is added to the bath cumulatively in increasing concentration. […]

[2] = system: soluble guanylate cyclase; test: Stimulation of soluble guanylate cyclase in primary endothelial cells; format: cell-based, pig; settings: for Increase in the cGMP concentration (%): test substances final concentration 1 μM, 10 minutes, primary endothelial cells from pig aortas
Protocol: Primary endothelial cells were isolated from pig aortas by treatment with collagenase soln. The cells were then cultured in culture medium at 37 °C/5% CO2 until confluence was reached. For the investigations, the cells were passaged, inoculated into 24-well cell culture plates and subcultured until reaching confluence (˜2×10^5 cells/well). For the stimulation of endothelial guanylate cyclase, the culture medium was aspirated and the cells were washed once with Ringer solution. After removing the Ringer solution, the cells were incubated for 10 minutes at 37° C./5% CO2 in stimulation buffer with or without NO donor (sodium nitroprusside, SNP or DEA/NO 1 μM). […] After the incubation time had ended, the buffer solution was aspirated and cold buffer at 4° C. was added to the cells. The cells were then lysed at −20° C. for 16 hours. The supernatants containing the intracellular cGMP were then removed and the cGMP concentration was determined by means of the cGMP-SPA system (Amersham Buchler, Brunswick).

anaesthetized rats = test: Blood pressure measurements in anaesthetized rats; format: in vivo, rat
Protocol: Male Wister rats having a bodyweight of 300-350 g are anaesthetized with Thiopental (100 mg/kg i.p.). After tracheotomy, a catheter is inserted into the femoral artery for blood pressure measurement. The substances to be tested are administered orally in Transcutol, Cremophor EL, H2O (10%/20%/70%) in a volume of 1 ml/kg.

[3] = system: human platelets stimulated with collagen; test: Inhibition of platelet aggregation in vitro; format: cell-based; settings: 10 min, collagen-induced aggregation, 10 min incubation at 37° C.
Protocol: as §1
To determine the platelet-aggregation, blood from healthy volunteers of both sexes was used. As an anticoagulant, 9 parts of blood were admixed to one part of 3.8% strength sodium citrate solution. The blood was centrifuged at 900 rpm for 20 min. The pH of the platelet-rich plasma obtained was adjusted to pH 6.5 using ACD solution (sodium citrate/citric acid/glucose). The platelets were subsequently centrifuged off and resuspended in buffer and once more centrifuged off. The platelet pellet was suspended in buffer and mixed with an additional 2 mmol/l of CaCl2.
To measure the aggregation, aliquots of the platelet suspension were incubated with the substance to be tested at 37° C. for 10 min.

IC50 ([1]; rabbit aorta rings, phenylephrin contraction reduced by 50%): 0.23 µM
Structure (SMILES): CS(=O)(=O)c1cnc(-c2nn(Cc3ccccc3F)c3ncccc23)nc1N [Example 1, 3-(4-Amino-5-methylsulphonylpyrimidin-2-yl)-1-(2-fluorobenzyl)-1H-pyrazolo[3,4-b]pyridine]
Increase in the cGMP concentration (%) [2]: >1000%

melting point: 215 °C
Structure (SMILES): NC(=O)c1cnc(-c2nn(Cc3ccccc3F)c3ncccc23)nc1N [Example 6]
Increase in the cGMP concentration (%) [2]: 600%

melting point: 181 °C
Structure (SMILES): Nc1nc(-c2nn(Cc3ccccc3F)c3ncccc23)ncc1CC(F)(F)F [Example 8]

Second part, the compound before the results:

Structure (SMILES): Cc1ccc(-c2nc(-c3nn(Cc4ccccc4F)c4ncccc34)ncc2C#N)cc1 [Example 14, 3-[5-Cyano-4-(4-methylphenyl)pyrimidin-2-yl]-1-(2-fluorobenzyl)-1H-pyrazolo[3,4-b]pyridine]
Increase in the cGMP concentration (%) [2]: >1000%

Structure (SMILES): Nc1nc(-c2nn(Cc3ccccc3F)c3ncccc23)nc(N)c1N1CCOCC1 [Example 16, 3-(4,6-Diamino-5-N-morpholinopyrimidin-2-yl)-1-(2-fluorobenzyl)-1H-pyrazolo[3,4-b]pyridine]
IC50 [1]: 0.2 µM
cGMP (pmol/well) ([2]; Ex. 16 0.1 μM): 5.1 pmol/well
cGMP (pmol/well) ([2]; Ex. 16 0.3 μM): 13.2 pmol/well
cGMP (pmol/well) ([2]; Ex. 16 1.0 μM): 20.8 pmol/well
cGMP (pmol/well) ([2]; Ex. 16 3.0 μM): 34.5 pmol/well
cGMP (pmol/well) ([2]; Ex. 16 10 μM): 47.7 pmol/well
max. reduction in blood pressure (mm Hg) (anaesthetized rats; 0.3 mg/kg p.o.): 21 mm Hg
max. reduction in blood pressure (mm Hg) (anaesthetized rats; 1.0 mg/kg p.o.): 35 mm Hg
IC50 [3]: 0.06 µM
